Laboratory results as given in the supplement of paper PMC10307832.

Assays:
Experiment in all cases: relative viability (nuclei count vs DMSO), 5 days (fraction); higher = more cells survive
A-427 = system: A-427
Method in brief: (§1)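 For relative viability, nuclei counts in treated wells were divided by those in vehicle wells. Lung cancer cell lines had been pin-tool dosed in 1536-well plates the day after seeding and cultured for 5 days, then fixed and stained in one step (final 0.05% Triton X-100, 1% formaldehyde, 1 ug/ml Hoechst) and imaged at 4×. Doses were one drug alone or a fixed anchor-drug dose plus five library-drug doses (not always all listed) in √10 steps, and values are duplicate-plate medians.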

ABC-1 = system: ABC-1
Method in brief: as §1

CAL-12T = system: CAL-12T
Method in brief: as §1

H3255 = system: H3255
Method in brief: as §1

LCLC-103H = system: LCLC-103H
Method in brief: as §1

LK-2 = system: LK-2
Method in brief: as §1

NCI-H1355 = system: NCI-H1355
Method in brief: as §1

NCI-H1395 = system: NCI-H1395
Method in brief: as §1

NCI-H1563 = system: NCI-H1563
Method in brief: as §1

NCI-H1651 = system: NCI-H1651
Method in brief: as §1

NCI-H1666 = system: NCI-H1666
Method in brief: as §1

NCI-H1792 = system: NCI-H1792
Method in brief: as §1

NCI-H2085 = system: NCI-H2085
Method in brief: as §1

NCI-H2087 = system: NCI-H2087
Method in brief: as §1

NCI-H2228 = system: NCI-H2228
Method in brief: as §1

NCI-H23 = system: NCI-H23
Method in brief: as §1

NCI-H322M = system: NCI-H322M
Method in brief: as §1

NCI-H358 = system: NCI-H358
Method in brief: as §1

NCI-H661 = system: NCI-H661
Method in brief: as §1

NCI-H838 = system: NCI-H838
Method in brief: as §1

PC-14 = system: PC-14
Method in brief: as §1

UMC-11 = system: UMC-11
Method in brief: as §1

## COCC1(CO)C(=O)C2CCN1CC2 (stereo unspecified) [PRIMA-1MET] + CS(=O)(=O)N1CCN(Cc2cc3nc(-c4cccc5[nH]ncc45)nc(N4CCOCC4)c3s2)CC1 [Pictilisib] (partner 1 µM)
A-427; first compound 0.2 µM
  relative viability: 0.255
A-427; first compound 0.6325 µM
  relative viability: 0.53
A-427; first compound 2 µM
  relative viability: 0.528
A-427; first compound 6.325 µM
  relative viability: 0.378
A-427; first compound 20 µM
  relative viability: 0.622
ABC-1; first compound 0.2 µM
  relative viability: 0.71
ABC-1; first compound 0.6325 µM
  relative viability: 0.5
ABC-1; first compound 2 µM
  relative viability: 0.558
ABC-1; first compound 6.325 µM
  relative viability: 0.669
ABC-1; first compound 20 µM
  relative viability: 0.55
CAL-12T; first compound 0.2 µM
  relative viability: 0.486
CAL-12T; first compound 0.6325 µM
  relative viability: 0.421
CAL-12T; first compound 2 µM
  relative viability: 0.315
CAL-12T; first compound 6.325 µM
  relative viability: 0.332
CAL-12T; first compound 20 µM
  relative viability: 0.0828
H3255; first compound 0.2 µM
  relative viability: 0.493
H3255; first compound 0.6325 µM
  relative viability: 0.437
H3255; first compound 2 µM
  relative viability: 0.466
H3255; first compound 6.325 µM
  relative viability: 0.469
H3255; first compound 20 µM
  relative viability: 0.406
LCLC-103H; first compound 0.2 µM
  relative viability: 0.612
LCLC-103H; first compound 0.6325 µM
  relative viability: 0.583
LCLC-103H; first compound 2 µM
  relative viability: 0.457
LCLC-103H; first compound 6.325 µM
  relative viability: 0.583
LCLC-103H; first compound 20 µM
  relative viability: 0.478
LK-2; first compound 0.2 µM
  relative viability: 0.652
LK-2; first compound 0.6325 µM
  relative viability: 0.57
LK-2; first compound 2 µM
  relative viability: 0.359
LK-2; first compound 6.325 µM
  relative viability: 0.364
LK-2; first compound 20 µM
  relative viability: 0.16
NCI-H1355; first compound 0.2 µM
  relative viability: 0.366
NCI-H1355; first compound 0.6325 µM
  relative viability: 0.35
NCI-H1355; first compound 2 µM
  relative viability: 0.308
NCI-H1355; first compound 6.325 µM
  relative viability: 0.36
NCI-H1355; first compound 20 µM
  relative viability: 0.541
NCI-H1395; first compound 0.2 µM
  relative viability: 0.613
NCI-H1395; first compound 0.6325 µM
  relative viability: 0.458
NCI-H1395; first compound 2 µM
  relative viability: 0.602
NCI-H1395; first compound 6.325 µM
  relative viability: 0.518
NCI-H1395; first compound 20 µM
  relative viability: 0.383
NCI-H1563; first compound 0.2 µM
  relative viability: 0.645
NCI-H1563; first compound 0.6325 µM
  relative viability: 0.696
NCI-H1563; first compound 2 µM
  relative viability: 0.632
NCI-H1563; first compound 6.325 µM
  relative viability: 0.629
NCI-H1563; first compound 20 µM
  relative viability: 0.345
NCI-H1651; first compound 0.2 µM
  relative viability: 0.662
NCI-H1651; first compound 0.6325 µM
  relative viability: 0.583
NCI-H1651; first compound 2 µM
  relative viability: 0.505
NCI-H1651; first compound 6.325 µM
  relative viability: 0.596
NCI-H1651; first compound 20 µM
  relative viability: 0.44
NCI-H1666; first compound 0.2 µM
  relative viability: 0.494
NCI-H1666; first compound 0.6325 µM
  relative viability: 0.335
NCI-H1666; first compound 2 µM
  relative viability: 0.54
NCI-H1666; first compound 6.325 µM
  relative viability: 0.415
NCI-H1666; first compound 20 µM
  relative viability: 0.198
NCI-H1792; first compound 0.2 µM
  relative viability: 0.227
NCI-H1792; first compound 0.6325 µM
  relative viability: 0.223
NCI-H1792; first compound 2 µM
  relative viability: 0.222
NCI-H1792; first compound 6.325 µM
  relative viability: 0.327
NCI-H1792; first compound 20 µM
  relative viability: 0.271
NCI-H2085; first compound 0.2 µM
  relative viability: 0.44
NCI-H2085; first compound 0.6325 µM
  relative viability: 0.419
NCI-H2085; first compound 2 µM
  relative viability: 0.33
NCI-H2085; first compound 6.325 µM
  relative viability: 0.4
NCI-H2085; first compound 20 µM
  relative viability: 0.359
NCI-H2087; first compound 0.2 µM
  relative viability: 0.413
NCI-H2087; first compound 0.6325 µM
  relative viability: 0.848
NCI-H2087; first compound 2 µM
  relative viability: 0.966
NCI-H2087; first compound 6.325 µM
  relative viability: 0.642
NCI-H2087; first compound 20 µM
  relative viability: 0.659
NCI-H2228; first compound 0.2 µM
  relative viability: 0.421
NCI-H2228; first compound 0.6325 µM
  relative viability: 0.343
NCI-H2228; first compound 2 µM
  relative viability: 0.358
NCI-H2228; first compound 6.325 µM
  relative viability: 0.19
NCI-H2228; first compound 20 µM
  relative viability: 0.0615
NCI-H23; first compound 0.2 µM
  relative viability: 0.361
NCI-H23; first compound 0.6325 µM
  relative viability: 0.403
NCI-H23; first compound 2 µM
  relative viability: 0.323
NCI-H23; first compound 6.325 µM
  relative viability: 0.334
NCI-H23; first compound 20 µM
  relative viability: 0.138
NCI-H322M; first compound 0.2 µM
  relative viability: 0.543
NCI-H322M; first compound 6.325 µM
  relative viability: 0.492
NCI-H322M; first compound 20 µM
  relative viability: 0.451
NCI-H358; first compound 0.2 µM
  relative viability: 0.392
NCI-H358; first compound 0.6325 µM
  relative viability: 0.318
NCI-H358; first compound 6.325 µM
  relative viability: 0.319
NCI-H358; first compound 20 µM
  relative viability: 0.0332
NCI-H661; first compound 0.2 µM
  relative viability: 0.396
NCI-H661; first compound 0.6325 µM
  relative viability: 0.238
NCI-H661; first compound 6.325 µM
  relative viability: 0.447
NCI-H661; first compound 20 µM
  relative viability: 0.262
NCI-H838; first compound 0.2 µM
  relative viability: 0.46
NCI-H838; first compound 0.6325 µM
  relative viability: 0.448
NCI-H838; first compound 2 µM
  relative viability: 0.355
NCI-H838; first compound 6.325 µM
  relative viability: 0.589
NCI-H838; first compound 20 µM
  relative viability: 0.632
PC-14; first compound 0.2 µM
  relative viability: 0.813
PC-14; first compound 0.6325 µM
  relative viability: 0.724
PC-14; first compound 2 µM
  relative viability: 0.692
PC-14; first compound 6.325 µM
  relative viability: 0.797
PC-14; first compound 20 µM
  relative viability: 0.401
UMC-11; first compound 0.2 µM
  relative viability: 0.945
UMC-11; first compound 0.6325 µM
  relative viability: 0.759
UMC-11; first compound 2 µM
  relative viability: 0.594
UMC-11; first compound 6.325 µM
  relative viability: 0.825
UMC-11; first compound 20 µM
  relative viability: 0.786
